Reference: BindingDB's records for PubMed 38252989 (IK Gujral Punjab Technical University)

These compounds were tested against T1, Alpha-amylase 1A (Homo sapiens, UniProt P0DUB6) (assay: Inhibition of Alpha-amylase (unknown origin)).
T1 sequence (P0DUB6 whole entry): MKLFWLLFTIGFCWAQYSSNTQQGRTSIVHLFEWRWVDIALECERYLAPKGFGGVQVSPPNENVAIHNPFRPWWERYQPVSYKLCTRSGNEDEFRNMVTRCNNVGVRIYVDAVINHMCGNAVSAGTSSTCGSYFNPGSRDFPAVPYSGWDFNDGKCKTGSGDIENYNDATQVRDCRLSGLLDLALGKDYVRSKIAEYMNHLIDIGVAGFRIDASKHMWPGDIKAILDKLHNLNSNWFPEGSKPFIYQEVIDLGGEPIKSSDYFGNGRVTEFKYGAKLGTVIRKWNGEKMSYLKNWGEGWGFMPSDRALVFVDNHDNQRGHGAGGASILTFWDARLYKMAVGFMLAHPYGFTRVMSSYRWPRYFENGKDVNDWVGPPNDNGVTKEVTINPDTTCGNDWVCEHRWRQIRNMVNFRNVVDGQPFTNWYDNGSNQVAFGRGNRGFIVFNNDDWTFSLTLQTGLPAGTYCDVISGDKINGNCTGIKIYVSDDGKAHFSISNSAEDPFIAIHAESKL

| SMILES | IC50 [nM] |
| --- | --- |
| C=CCN1C(=O)SC(=Cc2ccc(Cl)cc2Cl)C1=O | 44 |
| O=C(O)CN1C(=O)SC(=Cc2cn(-c3ccccc3)nc2-c2ccc([N+](=O)[O-])cc2)C1=O | 4.1 |
| O=C(O)CN1C(=O)SC(=Cc2ccc3c(c2)OCO3)C1=O | 10 |
| N#Cc1ccccc1-c1ccc(N2C(=O)SC(=Cc3ccccc3Oc3ccccc3)C2=O)cc1 | 0.13 |
